Experimental data reported in ChEMBL document CHEMBL4257083, “Novel cytochrome p450 inhibitors and their method of use” (2016).

How the values were obtained:
[1] = target: T1, Cytochrome P450 11B1, mitochondrial (Homo sapiens, UniProt P15538); experiment: Inhibition of recombinant CYP11B1 (unknown origin) expressed in human AD293 cells using 11-deoxycortisol as substrate pretreated for 60 mins followed by substrate addition and measured after 12 hrs by LC/MS analysis; format: cell-based
T1 sequence (P15538 whole entry): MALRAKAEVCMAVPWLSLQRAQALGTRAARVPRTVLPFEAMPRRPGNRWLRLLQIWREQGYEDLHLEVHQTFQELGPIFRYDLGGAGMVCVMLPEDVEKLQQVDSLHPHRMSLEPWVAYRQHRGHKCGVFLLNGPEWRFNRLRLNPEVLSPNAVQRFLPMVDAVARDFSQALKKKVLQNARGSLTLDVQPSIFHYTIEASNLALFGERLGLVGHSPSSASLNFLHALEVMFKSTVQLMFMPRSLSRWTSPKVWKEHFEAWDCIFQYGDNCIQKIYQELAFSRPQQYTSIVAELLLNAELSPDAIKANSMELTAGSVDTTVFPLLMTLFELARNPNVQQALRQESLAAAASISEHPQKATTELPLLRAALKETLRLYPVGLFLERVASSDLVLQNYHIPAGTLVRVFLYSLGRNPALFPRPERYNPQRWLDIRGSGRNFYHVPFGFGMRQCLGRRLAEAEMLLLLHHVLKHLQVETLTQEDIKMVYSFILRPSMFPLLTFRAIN

[2] = target: T2, Steroid 17-alpha-hydroxylase/17,20 lyase (Homo sapiens, UniProt P05093); experiment: Inhibition of recombinant CYP17 (unknown origin) expressed in human AD293 cells using 21[3H]-17alpha-hydroxyl-pregnenolone as substrate pretreated for 60 mins followed by substrate addition and measured after 4 hrs by Topcount method; format: cell-based
T2 sequence (P05093 whole entry): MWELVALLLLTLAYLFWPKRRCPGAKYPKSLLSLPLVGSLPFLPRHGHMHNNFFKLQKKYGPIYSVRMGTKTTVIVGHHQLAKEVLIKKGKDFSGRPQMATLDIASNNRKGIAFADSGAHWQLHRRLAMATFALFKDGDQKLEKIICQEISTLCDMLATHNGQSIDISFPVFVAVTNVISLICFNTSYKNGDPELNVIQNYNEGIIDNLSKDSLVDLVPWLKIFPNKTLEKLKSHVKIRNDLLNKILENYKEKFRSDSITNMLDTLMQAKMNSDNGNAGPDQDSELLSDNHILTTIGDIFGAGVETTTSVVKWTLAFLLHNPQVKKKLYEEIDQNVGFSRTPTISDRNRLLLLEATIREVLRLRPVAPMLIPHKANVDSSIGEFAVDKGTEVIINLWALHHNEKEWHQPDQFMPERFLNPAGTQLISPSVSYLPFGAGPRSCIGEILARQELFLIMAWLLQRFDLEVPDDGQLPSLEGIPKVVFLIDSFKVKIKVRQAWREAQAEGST

Steroid 21-hydroxylase = target: T3, Steroid 21-hydroxylase (Homo sapiens, UniProt P08686); experiment: Inhibition of recombinant CYP21 (unknown origin) expressed in human AD293 cells using 17alpha-hydroxyprogesterone as substrate pretreated for 60 mins followed by substrate addition and measured after 45 mins by LC/MS analysis; format: cell-based
T3 sequence (P08686 whole entry): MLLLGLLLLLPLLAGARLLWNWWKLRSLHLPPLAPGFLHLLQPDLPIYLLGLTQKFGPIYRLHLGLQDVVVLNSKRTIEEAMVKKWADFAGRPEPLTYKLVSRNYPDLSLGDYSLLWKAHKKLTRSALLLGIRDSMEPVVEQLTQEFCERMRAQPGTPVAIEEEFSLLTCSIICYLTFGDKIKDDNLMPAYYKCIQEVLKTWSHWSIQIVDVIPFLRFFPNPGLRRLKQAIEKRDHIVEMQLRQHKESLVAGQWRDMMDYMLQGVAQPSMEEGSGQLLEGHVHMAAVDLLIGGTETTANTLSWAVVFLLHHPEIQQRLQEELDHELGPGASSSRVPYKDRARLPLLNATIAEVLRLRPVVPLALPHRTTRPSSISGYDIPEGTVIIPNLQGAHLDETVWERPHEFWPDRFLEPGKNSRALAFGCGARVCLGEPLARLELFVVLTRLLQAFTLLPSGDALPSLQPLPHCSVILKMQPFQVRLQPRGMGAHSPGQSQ

[3] = Oral bioavailability in guinea pig at 10 mg/kg; format: ADME, organism-based, Cavia porcellus; details: in vivo
[4] = Tmax in guinea pig at 10 mg/kg, po; format: ADME, organism-based, Cavia porcellus; details: in vivo

Row | SMILES | IC50 [1] [µM] | IC50 [2] [µM] | IC50 (Steroid 21-hydroxylase) [µM] | bioavailability [3] [%] | Tmax [4] [h] | F [3] [%]
1 | N#CCS(=O)(=O)N1CCN(c2ccc(/C=C/c3cc(F)cc(Cn4ccnc4)c3)cc2)CC1 | 0.073 | 0.086 | ≥ 10 | – | – | –
2 | CS(=O)(=O)N1CCN(c2ccc(/C=C/c3cc(F)cc(Cn4ccnc4)c3)cc2)CC1 | 0.049 | 0.058 | ≥ 10 | – | – | –
3 | CS(=O)(=O)N1CCN(c2ccc(/C=C/c3cc(Cl)cc(-c4ccncc4)c3)cc2)CC1 | 0.45 | 0.005 | 0.84 | – | – | –
4 | CCS(=O)(=O)N1CCN(c2ccc(/C=C/c3cc(F)cc(-c4ccncc4)c3)cc2)CC1 | – | – | – | 22.3 | 5.33 | –
5 | CS(=O)(=O)N1CCN(c2ccc(/C=C/c3cc(Cl)cc(Cn4ccnc4)c3)cc2)CC1 | 0.024 | 0.18 | 2.2 | – | – | –
6 | CS(=O)(=O)N1CCN(c2ccc(/C=C/c3cc(F)cc(-c4ccncc4)c3)cc2)CC1 | 0.2 | 0.005 | 0.74 | – | – | –
7 | N=C(N)N1CCN(c2ccc(/C=C/c3cc(F)cc(Cn4ccnc4)c3)cc2)CC1 | 1.4 | 1.2 | ≥ 10 | – | – | –
8 | Clc1cc(/C=C/c2ccc(N3CCN(C4=NCCO4)CC3)cc2)cc(-c2ccncc2)c1 | 3.5 | 0.005 | 1.2 | – | – | –
9 | O=S(=O)(C1CC1)N1CCN(c2ccc(/C=C/c3cc(F)cc(-c4ccncc4)c3)cc2)CC1 | – | – | – | – | 8 | –
10 | O=S(=O)(c1c[nH]cn1)N1CCN(c2ccc(/C=C/c3cc(Cl)cc(Cn4ccnc4)c3)cc2)CC1 | 0.007 | 0.0062 | ≥ 10 | – | – | –
11 | CC(C)S(=O)(=O)N1CCN(c2ccc(/C=C/c3cc(Cl)cc(-c4ccncc4)c3)cc2)CC1 | 0.058 | 0.005 | 0.565 | – | – | –
12 | CC(C)S(=O)(=O)N1CCN(c2ccc(/C=C/c3cc(F)cc(Cn4ccnc4)c3)cc2)CC1 | 0.005 | 0.039 | 0.7 | – | – | –
13 | O=S(=O)(C1CC1)N1CCN(c2ccc(/C=C/c3cc(Cl)cc(Cn4ccnc4)c3)cc2)CC1 | 0.022 | – | 0.34 | – | – | –
14 | Fc1cc(/C=C/c2ccc(N3CCN(C4=NCCCO4)CC3)cc2)cc(Cn2ccnc2)c1 | 0.017 | 0.042 | 1 | – | – | –
15 | N=C(N)N1CCN(c2ccc(/C=C/c3cc(Cl)cc(Cn4ccnc4)c3)cc2)CC1 | 1.3 | 2.5 | ≥ 10 | – | – | –
16 | N=C(N)N1CCN(c2ccc(/C=C/c3cc(F)cc(-c4ccncc4)c3)cc2)CC1 | 3.6 | 0.018 | ≥ 10 | – | – | –
17 | O=S(=O)(N1CCN(c2ccc(/C=C/c3cc(F)cc(-c4ccncc4)c3)cc2)CC1)C(F)(F)F | – | – | – | 22.1 | 3.33 | –
18 | CCS(=O)(=O)N1CCN(c2ccc(/C=C/c3cc(Cl)cc(Cn4ccnc4)c3)cc2)CC1 | – | 0.024 | 0.54 | – | – | –

Row | SMILES | IC50 [1] [µM] | IC50 [2] [µM] | IC50 (Steroid 21-hydroxylase) [µM] | bioavailability [3] [%] | Tmax [4] [h] | F [3] [%]
19 | O=S(=O)(C1CC1)N1CCN(c2ccc(/C=C/c3cc(Cl)cc(-c4ccncc4)c3)cc2)CC1 | 0.051 | 0.005 | 0.416 | – | – | –
20 | Clc1cc(/C=C/c2ccc(N3CCN(C4=NCCO4)CC3)cc2)cc(Cn2ccnc2)c1 | 0.13 | 0.1 | 3.5 | – | – | –
21 | Fc1cc(/C=C/c2ccc(N3CCN(C4=NCCO4)CC3)cc2)cc(Cn2ccnc2)c1 | 0.13 | 0.117 | ≥ 10 | – | – | –
22 | Fc1cc(/C=C/c2ccc(N3CCN(C4=NCCO4)CC3)cc2)cc(-c2ccncc2)c1 | 1.8 | 0.005 | 1.2 | – | – | –
23 | CC(=O)N1CCN(c2ccc(/C=C/c3cc(Cl)cc(Cn4ccnc4)c3)cc2)CC1 | – | 0.042 | – | – | – | –
24 | CC(=O)N1CCN(c2ccc(/C=C/c3cc(F)cc(-c4ccncc4)c3)cc2)CC1 | 1.2 | 0.0046 to 0.005 | 0.43 | – | 3 | 184.21
25 | N=C(N)N1CCN(c2ccc(/C=C/c3cc(Cl)cc(-c4ccncc4)c3)cc2)CC1 | 10 | – | ≥ 10 | – | – | –
26 | CC(C)S(=O)(=O)N1CCN(c2ccc(/C=C/c3cc(Cl)cc(Cn4ccnc4)c3)cc2)CC1 | 0.24 | 0.038 | 0.085 | – | – | –
27 | CC(=O)N1CCN(c2ccc(CCc3cc(F)cc(-c4ccncc4)c3)cc2)CC1 | 0.0014 | 0.021 | ≥ 10 | – | – | –
28 | CC(=O)N1CCN(c2ccc(/C=C/c3cc(O)cc(-n4ccnc4)c3)cc2)CC1 | 4.8 | 0.22 | 1.95 | – | – | –
29 | CC(=O)N1CCN(c2ccc(/C=C/c3cc(O)cc(Cn4ccnc4)c3)cc2)CC1 | 0.051 | 0.088 | 2.4 | – | – | –
30 | O=S(=O)(CCCCl)N1CCN(c2ccc(/C=C/c3cc(Cl)cc(Cn4ccnc4)c3)cc2)CC1 | 0.013 | 0.031 | 2.87 | – | – | –
31 | O=[N+]([O-])c1cccc(S(=O)(=O)N2CCN(c3ccc(/C=C/c4cc(Cl)cc(Cn5ccnc5)c4)cc3)CC2)c1 | 0.004 | 0.009 | 0.16 | – | – | –
32 | Oc1cc(/C=C/c2ccc(Br)cc2)cc(-n2ccnc2)c1 | 1.4 | 1.2 | ≥ 10 | – | – | –
33 | N#Cc1cccc(S(=O)(=O)N2CCN(c3ccc(/C=C/c4cc(Cl)cc(Cn5ccnc5)c4)cc3)CC2)c1 | 0.004 | 0.021 | 1.2 | – | – | –
34 | O=[N+]([O-])c1cc(S(=O)(=O)N2CCN(c3ccc(/C=C/c4cc(Cl)cc(Cn5ccnc5)c4)cc3)CC2)ccc1Cl | 0.057 | 0.106 | ≥ 10 | – | – | –
35 | O=C(c1cccc([N+](=O)[O-])c1)N1CCN(c2ccc(/C=C/c3cc(Cl)cc(Cn4ccnc4)c3)cc2)CC1 | 0.004 | 0.017 | ≥ 10 | – | – | –
36 | O=C(c1cccnc1)N1CCN(c2ccc(/C=C/c3cc(Cl)cc(Cn4ccnc4)c3)cc2)CC1 | 0.0049 | 0.026 | ≥ 10 | – | – | –
